According to patent publication US20240327356A1, “PYRIMIDINE BASED RAS MODULATORS AND USES THEREOF” (QUANTA THERAPEUTICS, INC., priority 2021, published 2024):

Experiments:
[1] = biological target: KRAS^G12D-FMe.RAF1^RBDCRD complex (Homo sapiens, UniProt P01116, G12D); experiment: SHG assay: binding to bilayer-tethered KRAS G12D/RAF1 complex; conditions: GppNHp-loaded complex on PS bilayer; compound 0.027-40 μM, monitored over 60 min
Method: Compounds suspected to carry intrinsic SHG activity were tested in the presence of an unlabeled KRAS^G12D-FMe.RAF1^RBDCRD complex to monitor binding. PS bilayer was prepared from PS-enriched small unilamellar vesicles (SUVs) purchased from Biodesy, Inc. The concentrated SUVs were diluted in TBS buffer containing 5 mM CaCl2 and incubated on a glass-bottom 384-well Biodesy Delta™ assay plate to allow bilayer formation. Equimolar amounts of GppNHp-loaded KRAS^G12D-FMe and RAF1^RBDCRD were mixed and incubated together on PS bilayer overnight at 4° C. The following day, untethered protein was removed by washing with assay buffer (20 mM Hepes, pH 7.4, […], 1 mM TCEP, 5 μM GppNHp). The SHG signal produced by bilayer-tethered complex was ready using the Biodesy Delta™ platform where each well was pulsed with an 800 nm laser and the resulting second harmonic signal intensity at 400 nm was collected. Compounds were diluted into the same assay buffer and applied to the complex at a final concentration range spanning 0.027 μM-40 μM and the SHG intensity of each well was monitored at 5 minute intervals over a 60 minute time period.

[2] = tested on: Phospho-ERK (Thr202/Tyr204) in MiaPaCa-2 cells; experiment: pERK inhibition in MiaPaca-2 cell line (HTRF); assay type: cell-based; conditions: Homo sapiens, MIA PaCa-2, 1 hour incubation with compound
Method: MiaPaCa-2 cells (ATCC CRL-1420) were cultured in high glucose DMEM (Gibco 11965092) containing 10% fetal bovine serum (Gibco 1993708) and 1× Penicillin/Streptomycin, at 37° C. in a humid atmosphere of 5% CO2 in the air. Cells were plated in tissue-culture treated 96-well plates at a density of 10,000 cells/well and allowed to attach for 16 hours. The medium was then removed, and diluted compounds were added in a final concentration of 0.5% DMSO. After 1 hour of incubation, cells were lysed by the lysis buffer supplied with the Phospho-ERK (Thr202/Tyr204) cellular HTRF kit (Cisbio 64ERKPEH) and transferred to a 384-well low-volume white plate (PerkinElmer 6008280). The cell lysates were treated with the detection reagents supplied with the HTRF kit for 4 hours at ambient temperature in darkness. Two fluorescence intensities at the wavelengths (665 and 620 nm) were measured by the Envision plate reader (Perkin Elmer), and the data were processed and fitted to a 4-parameter logistic model for IC50 calculation (GraphPad Prism 9).

Row | Compound | EC50 [1] [µM] | IC50 [2] [µM]
1 | NCC1CCN(c2nc(-c3ccc(C(F)(F)F)cc3F)ncc2CNC(=O)C2(CN)CC2)C1 (centres unmarked) [Compound 25] | 1 to 10 | 10 to 50
2 | N#CC1(C(=O)NCc2cnc(-c3ccc(C(F)(F)F)cc3F)nc2N2CCC(CN)C2)CC1 (centres unmarked) [Compound 28] | 10 to 50 | 1 to 10
3 | N#CC1(C(=O)N2CC=C(c3cnc(-c4ccc(Cl)c(C(F)(F)F)c4)nc3N3CCC(CN)C3)C2)CC1 (centres unmarked) [Compound 29] | 1 to 10 | 1 to 10
4 | N#Cc1cc(-c2ncc(C3=CCN(C(=O)C4(C#N)CC4)C3)c(N3CCC(CN)C3)n2)ccc1Cl (centres unmarked) [Compound 30] | 10 to 50 | 1 to 10
5 | NC[C@@H]1CCCN1c1nc(-c2ccc(Cl)c(C(F)(F)F)c2)ncc1C1=CCNC1 [Compound 31] | < 0.1 | 1 to 10
6 | Cc1ccc(-c2ncc(C3=CCNC3)c(N3CCC(CN)C3)n2)cc1C(F)(F)F (centres unmarked) [Compound 32] | 0.1 to 1 | 1 to 10
7 | NC[C@H]1CCCN1c1nc(-c2ccc(Cl)c(C(F)(F)F)c2)ncc1C1=CCNC1 [Compound 33] | 1 to 10 | 1 to 10
8 | NCCOc1nc(-c2ccc(Cl)c(C(F)(F)F)c2)ncc1C1=CCNC1 [Compound 34, 2-[2-[4-chloro-3-(trifluoromethyl)phenyl]-5-(2,5-dihydro-1H-pyrrol-3-yl)pyrimidin-4-yl]oxyethanamine] | 0.1 to 1 | 1 to 10
9 | N#Cc1cc(-c2ncc(CNC(=O)C3(F)CC3)c(N3CCC(CN)C3)n2)ccc1Cl (centres unmarked) [Compound 35] | 10 to 50 | 1 to 10
10 | N#CC1(C(=O)N2CC=C(c3cnc(-c4ccc(Cl)c(C(F)(F)F)c4)nc3OCCN)C2)CC1 [Compound 36] | 1 to 10 | 1 to 10
11 | N#CC1(C(=O)NCc2cnc(-c3ccc(Cl)c(C(F)(F)F)c3)nc2N2C[C@@H](N)[C@H](O)C2)CC1 [Compound 37] | 10 to 50 | 1 to 10
12 | N#CC1(C(=O)NCc2cnc(-c3ccc(Cl)c(C(F)(F)F)c3)nc2OC2CCNC2)CC1 (centres unmarked) [Compound 38] | 10 to 50 | 1 to 10
13 | N#CC1(C(=O)NCc2cnc(-c3ccc(Cl)c(C(F)(F)F)c3)nc2OC2CNC2)CC1 [Compound 39] | 1 to 10 | 1 to 10
14 | N[C@@H]1CN(c2nc(-c3ccc(Cl)c(C(F)(F)F)c3)ncc2C2=CCNC2)C[C@H]1O [Compound 40] | 0.1 to 1 | 1 to 10
15 | N[C@@H]1CN(c2nc(-c3ccc(Cl)cc3NC(=O)C3CC3)ncc2C2=CCNC2)C[C@H]1O [Compound 43] | 10 to 50 | 10 to 50
16 | N[C@@H]1CN(c2nc(-c3ccc(Cl)cc3NC(=O)C3(F)CC3)ncc2C2=CCNC2)C[C@H]1O [Compound 44] | 1 to 10 | 1 to 10
17 | N#Cc1cc(-c2ncc(CNc3ccccc3)c(N3CCC(CN)C3)n2)ccc1C(F)(F)F (centres unmarked) [Compound 45, 5-[4-[3-(aminomethyl)pyrrolidin-1-yl]-5-(anilinomethyl)pyrimidin-2-yl]-2-(trifluoromethyl)benzonitrile] | 1 to 10 | 1 to 10
18 | N#CC1(C(=O)NCc2cnc(-c3ccc(Cl)c(C(F)(F)F)c3)nc2OCCN)CC1 [Compound 46] | 1 to 10 | 1 to 10
19 | N#CC1(C(=O)NCc2cnc(-c3ccc(Cl)c(C(F)(F)F)c3)nc2N2CCC(F)(CN)C2)CC1 (centres unmarked) [Compound 47] | 1 to 10 | 1 to 10
20 | N#CC1(C(=O)NCc2cnc(-c3ccc(Cl)c(C(F)(F)F)c3)nc2N2CCC(N)CC2)CC1 [Compound 48] | 1 to 10 | 1 to 10
21 | NCC1CCN(c2nc(-c3ccc(Cl)c(C(F)(F)F)c3)ncc2CNCCO)C1 (centres unmarked) [Compound 49, 2-[[4-[3-(aminomethyl)pyrrolidin-1-yl]-2-[4-chloro-3-(trifluoromethyl)phenyl]pyrimidin-5-yl]methylamino]ethanol] | 1 to 10 | 1 to 10
22 | N#CC1(C(=O)NCc2cnc(-c3ccc(Cl)c(C(F)(F)F)c3)nc2OC2CC(N)C2)CC1 (centres unmarked) [Compound 50] | 1 to 10 | 1 to 10
23 | N#CC1(C(=O)NCc2cnc(-c3ccc(Cl)c(C(F)(F)F)c3)nc2N2CCOC(CN)C2)CC1 (centres unmarked) [Compound 51] | 1 to 10 | 1 to 10
24 | N#CC1(C(=O)NCc2cnc(-c3ccc(Cl)c(C(F)(F)F)c3)nc2N2CCNCC2)CC1 [Compound 54] | 1 to 10 | 1 to 10
25 | N#CC1(C(=O)NCc2cnc(-c3ccc(Cl)c(C(F)(F)F)c3)nc2N2CCC[C@H]2CN)CC1 [Compound 55] | 10 to 50 | 1 to 10
